From patent US9980943B2, “Methods of treating muscular dystrophy” (BOARD OF REGENTS OF THE NEVADA SYSTEM OF HIGHER EDUCATION, …, priority 2013, dated 2018)

Assays:
Type in all cases: cell-based, mouse
[1] = test system: α7 integrin (LacZ reporter in α7βgal+/− myoblasts); assay: Myoblast α7+/LacZ integrin FDG assay (Burkin assay in myoblasts, 96-well); conditions: α7+/LacZ myoblasts, 96-well
[2] = test system: α7 integrin (LacZ reporter in α7+/LacZ myotubes); assay: Myotube α7 integrin FDG assay (Burkin assay in myotubes, 96-well); conditions: myotubes
[3] = test system: β-galactosidase in CMV-LacZ C2C12 myotubes; assay: CMV-LacZ secondary screen in C2C12 myotubes (β-Gal stabilizing assay); conditions: for CMV-LACZ in Myotubes (β-galactosidase activity relative to DMSO): CMV-LacZ C2C12 myotubes, 96-well format
How it was run: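 First, C2C12 myoblasts were transfected with a linearized CMV-LACZ vector and clonal lines selected by FDG β-gal assay. Then cells were exposed to compounds at 0.5, 1, 5, 10, 20 and 40 μM in 96-well format, two replicates each, and β-gal measured.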

[4] = 5 uM, C2C12 CMV-LacZ myotubes, fold relative to DMSO
[5] = 10 uM, C2C12 CMV-LacZ myotubes, fold relative to DMSO
[6] = 20 uM, C2C12 CMV-LacZ myotubes, fold relative to DMSO
[7] = 40 uM, C2C12 CMV-LacZ myotubes, fold relative to DMSO

Row | SMILES | Burkin Assay in Myoblasts, signal relative to DMSO ([1]; 0.5 uM) | Burkin Assay in Myoblasts, signal relative to DMSO ([1]; 1 uM) | Burkin Assay in Myoblasts, signal relative to DMSO ([1]; 5 uM) | Burkin Assay in Myoblasts, signal relative to DMSO ([1]; 10 uM) | Burkin Assay in Myoblasts, signal relative to DMSO ([1]; 20 uM) | Burkin Assay in Myoblasts, signal relative to DMSO ([1]; 40 uM) | Burkin Assay in Myotubes, α7 integrin LacZ reporter signal relative to DMSO ([2]; 0.5 uM) | Burkin Assay in Myotubes, α7 integrin LacZ reporter signal relative to DMSO ([2]; 1 uM) | Burkin Assay in Myotubes, α7 integrin LacZ reporter signal relative to DMSO ([2]; 5 uM) | Burkin Assay in Myotubes, α7 integrin LacZ reporter signal relative to DMSO ([2]; 10 uM) | Burkin Assay in Myotubes, α7 integrin LacZ reporter signal relative to DMSO ([2]; 20 uM) | Burkin Assay in Myotubes, α7 integrin LacZ reporter signal relative to DMSO ([2]; 40 uM) | CMV-LACZ in Myotubes, signal relative to DMSO [3, 4] | CMV-LACZ in Myotubes, signal relative to DMSO [3, 5] | CMV-LACZ in Myotubes, signal relative to DMSO [3, 6] | CMV-LACZ in Myotubes, signal relative to DMSO [3, 7] | Burkin Assay in Myoblasts, value relative to DMSO ([1]; 0.5 uM) | Burkin Assay in Myoblasts, value relative to DMSO ([1]; 1 uM) | Burkin Assay in Myoblasts, value relative to DMSO ([1]; 5 uM) | Burkin Assay in Myoblasts, value relative to DMSO ([1]; 10 uM) | other results
1 | CN(C)C1(CN=Cc2cc(Cl)cc([N+](=O)[O-])c2O)CCCCC1 [MLS001179695-01] | 1.033 | 0.9441 | 0.8752 | 0.9871 | 0.8923 | 0.8068 | 1.053 | 0.949 | 1.199 | 0.9922 | 0.9298 | 0.8546 | 1.183 | 1.095 | 1.175 | 1.047 | – | – | – | – | –
2 | CN(C)CCNc1ncnc2sc(-c3ccccc3)cc12 [MLS001179717-01] | 0.912 | 0.864 | 0.8357 | 0.6794 | 0.3052 | 0.05093 | 0.8788 | 1.027 | 0.744 | 0.6812 | 0.5137 | 0.2663 | 1.084 | 0.8133 | 0.5748 | 0.4829 | – | – | – | – | –
3 | CC(C)(CC(=O)O)CC(=O)N1CCCN(c2nccc(C(F)(F)F)n2)CC1 [MLS001181671-01] | – | – | – | – | – | – | – | – | – | – | – | – | 0.8803 | 0.9201 | 1.03 | 0.9377 | 1.052 | 0.965 | 0.8759 | 0.8638 | Burkin Assay in Myoblasts, value relative to DMSO ([1]; 20 uM): 0.8113; Burkin Assay in Myoblasts, value relative to DMSO ([1]; 40 uM): 0.891; Burkin Assay in Myotubes (signal relative to DMSO) ([2]; 0.5 uM): 1.071; Burkin Assay in Myotubes (signal relative to DMSO) ([2]; 1 uM): 0.9095; Burkin Assay in Myotubes (signal relative to DMSO) ([2]; 5 uM): 1.337; Burkin Assay in Myotubes (signal relative to DMSO) ([2]; 10 uM): 1.22; Burkin Assay in Myotubes (signal relative to DMSO) ([2]; 20 uM): 0.9854; Burkin Assay in Myotubes (signal relative to DMSO) ([2]; 40 uM): 0.9878
4 | Oc1c(Br)cc(Br)cc1CNc1cccc2cccnc12 [MLS001183429-01] | 0.7592 | 0.6652 | 0.7821 | 0.7373 | 0.5666 | 0.3329 | 0.8042 | 0.823 | 0.8557 | 0.733 | 0.4076 | 0.2629 | 0.8436 | 0.944 | 0.9105 | 0.5809 | – | – | – | – | –
5 | CCOc1ccc(-n2c(C)c(C(=O)O)c3cc(OC)ccc32)cc1 [MLS001194551-01] | – | – | – | – | – | – | – | – | – | – | – | – | 0.8273 | 0.9459 | 1.047 | 0.7809 | 1.096 | 1.205 | 1.115 | 1.297 | Burkin Assay in Myoblasts, value relative to DMSO ([1]; 20 uM): 1.176; Burkin Assay in Myoblasts, value relative to DMSO ([1]; 40 uM): 1.392; Burkin Assay in Myotubes (signal relative to DMSO) ([2]; 0.5 uM): 1.0169; Burkin Assay in Myotubes (signal relative to DMSO) ([2]; 1 uM): 1.01; Burkin Assay in Myotubes (signal relative to DMSO) ([2]; 5 uM): 1.043; Burkin Assay in Myotubes (signal relative to DMSO) ([2]; 10 uM): 1.094; Burkin Assay in Myotubes (signal relative to DMSO) ([2]; 20 uM): 1.209; Burkin Assay in Myotubes (signal relative to DMSO) ([2]; 40 uM): 1.281
6 | COc1ccc(Nc2ncnc3ccc(Br)cc23)cc1OC [MLS001196422-01] | – | – | – | – | – | – | – | – | – | – | – | – | – | – | – | – | – | – | – | – | fold induction at 0.5 µM ([1]; Mus musculus, Myoblast, 48 h, 0.5 uM, read-out: Burkin Assay in Myoblasts, signal relative to DMSO): 0.746; fold induction at 1 µM ([1]; Mus musculus, Myoblast, 48 h, 1 uM, read-out: Burkin Assay in Myoblasts, signal relative to DMSO): 0.978; fold induction at 5 µM ([1]; Mus musculus, Myoblast, 48 h, 5 uM, read-out: Burkin Assay in Myoblasts, signal relative to DMSO): 1.23; fold induction at 10 µM ([1]; Mus musculus, Myoblast, 48 h, 10 uM, read-out: Burkin Assay in Myoblasts, signal relative to DMSO): 1.33; fold induction at 20 µM ([1]; Mus musculus, Myoblast, 48 h, 20 uM, read-out: Burkin Assay in Myoblasts, signal relative to DMSO): 1.25; fold induction at 40 µM ([1]; Mus musculus, Myoblast, 48 h, 40 uM, read-out: Burkin Assay in Myoblasts, signal relative to DMSO): 1; fold induction at 0.5 µM ([2]; Mus musculus, Myotube, 0.5 uM, read-out: Burkin Assay in Myotubes, α7 integrin LacZ reporter signal relative to DMSO): 0.976; fold induction at 1 µM ([2]; Mus musculus, Myotube, 1 uM, read-out: Burkin Assay in Myotubes, α7 integrin LacZ reporter signal relative to DMSO): 1.14; fold induction at 5 µM ([2]; Mus musculus, Myotube, 5 uM, read-out: Burkin Assay in Myotubes, α7 integrin LacZ reporter signal relative to DMSO): 1.19; fold induction at 10 µM ([2]; Mus musculus, Myotube, 10 uM, read-out: Burkin Assay in Myotubes, α7 integrin LacZ reporter signal relative to DMSO): 1.32; fold induction at 20 µM ([2]; Mus musculus, Myotube, 20 uM, read-out: Burkin Assay in Myotubes, α7 integrin LacZ reporter signal relative to DMSO): 1.09; fold induction at 40 µM ([2]; Mus musculus, Myotube, 40 uM, read-out: Burkin Assay in Myotubes, α7 integrin LacZ reporter signal relative to DMSO): 0.975; fold induction at 5 µM ([3]; Mus musculus, 5 uM, C2C12 CMV-LacZ myotubes, fold relative to DMSO, read-out: CMV-LACZ in Myotubes, signal relative to DMSO): 0.896; fold induction at 10 µM ([3]; Mus musculus, 10 uM, C2C12 CMV-LacZ myotubes, fold relative to DMSO, read-out: CMV-LACZ in Myotubes, signal relative to DMSO): 0.893; fold induction at 20 µM ([3]; Mus musculus, 20 uM, C2C12 CMV-LacZ myotubes, fold relative to DMSO, read-out: CMV-LACZ in Myotubes, signal relative to DMSO): 0.83; fold induction at 40 µM ([3]; Mus musculus, 40 uM, C2C12 CMV-LacZ myotubes, fold relative to DMSO, read-out: CMV-LACZ in Myotubes, signal relative to DMSO): 0.856
7 | CCOc1cc(/C=C2\C(=O)ON=C2c2ccccc2)ccc1OC [MLS001196946-01] | – | – | – | – | – | – | – | – | – | – | – | – | – | – | – | – | 0.9541 | 0.9798 | 0.7989 | 0.6188 | Burkin Assay in Myoblasts, value relative to DMSO ([1]; 20 uM): 0.1194; Burkin Assay in Myoblasts, value relative to DMSO ([1]; 40 uM): 0.08385; Burkin Assay in Myotubes (signal relative to DMSO) ([2]; 0.5 uM): 0.9942; Burkin Assay in Myotubes (signal relative to DMSO) ([2]; 1 uM): 1.113; Burkin Assay in Myotubes (signal relative to DMSO) ([2]; 5 uM): 1.002; Burkin Assay in Myotubes (signal relative to DMSO) ([2]; 10 uM): 0.9469; Burkin Assay in Myotubes (signal relative to DMSO) ([2]; 20 uM): 0.5465; Burkin Assay in Myotubes (signal relative to DMSO) ([2]; 40 uM): 0.2832; CMV-LACZ in Myotubes (β-galactosidase activity relative to DMSO) ([3]; 5 uM): 0.9817; CMV-LACZ in Myotubes (β-galactosidase activity relative to DMSO) ([3]; 10 uM): 1.13; CMV-LACZ in Myotubes (β-galactosidase activity relative to DMSO) ([3]; 20 uM): 2.7886; CMV-LACZ in Myotubes (β-galactosidase activity relative to DMSO) ([3]; 40 uM): 3.9614
8 | CC1(C)CC(=O)C=C(Nc2ccc(C(=O)O)c(O)c2)C1 [MLS001198693-01] | 0.9617 | 0.5426 | 0.9229 | 0.9137 | 0.9351 | 0.9164 | 0.96 | 0.9048 | 1.011 | 0.9514 | 0.9319 | 1.116 | 1.092 | 0.9258 | 1.025 | 1.112 | – | – | – | – | –
